Data as given in publication PMC9132363 (Journal of Medicinal Chemistry, 2022).

Experiments:
[1] = target: NRF2–KEAP1 protein–protein interaction (Homo sapiens, UniProt Q14145); experiment: Fluorescence polarization (FP) assay; type: binding
[2] = target: human serum albumin (HSA) (Homo sapiens, UniProt P02768); experiment: Serum albumin binding by fluorescence quenching; conditions: HSA 2 μM, λex 280 nm, λem 337 nm
Procedure: After each addition, the mixture was incubated at rt for 5 min, and then, the emission fluorescence spectra of HAS (λ = 280 nm) were measured using a Fluorometer Max-4P (Horiba Jobin Yvon). The data obtained were further processed using the Stern–Volmer and Scatchard models in GraphPad Prism 8.0 software.

GSK-3β = GSK-3β (Homo sapiens, UniProt P49841); experiment: GSK-3β kinase inhibition; type: biochemical
GSK-3β, sequence (P49841 whole entry, species assumed): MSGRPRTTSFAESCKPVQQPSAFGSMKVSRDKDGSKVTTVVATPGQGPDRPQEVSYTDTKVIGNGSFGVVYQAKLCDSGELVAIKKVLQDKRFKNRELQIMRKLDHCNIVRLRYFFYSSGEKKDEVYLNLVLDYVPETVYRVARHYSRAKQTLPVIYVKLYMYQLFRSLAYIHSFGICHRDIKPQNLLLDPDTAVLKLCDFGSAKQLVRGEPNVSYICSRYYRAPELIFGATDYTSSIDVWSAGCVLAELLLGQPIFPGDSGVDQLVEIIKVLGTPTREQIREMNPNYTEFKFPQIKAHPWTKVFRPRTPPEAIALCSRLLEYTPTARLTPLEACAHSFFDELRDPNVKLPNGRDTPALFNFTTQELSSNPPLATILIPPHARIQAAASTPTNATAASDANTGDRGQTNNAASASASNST

control lymphoblasts = experiment: NRF2 pathway in control lymphoblasts; type: cell-based, human; conditions: 20 μM, 24 h
Source text: (§1) Peripheral blood samples of all the individuals enrolled in this study were collected after written informed consent of the patients or their relatives (demographic information is presented in Table 9) to establish the lymphoblastoid cell lines (LCLs), by infecting peripheral blood lymphocytes with the Epstein–Barr virus (EBV), as previously described.[68] Participants or their relatives gave written informed consent. This study was approved by the Hospital Doce de Octubre and the Spanish Council of Higher Research Institutional Review Boards. All patients were diagnosed by applying the revised El Escorial criteria.[69] […] Genetic testing for SOD1, TARDBP, FUS, and C9ORF72 was performed in all cases.
(§2) LCLs were grown in suspensions in T flasks, in an RPMI-1640 medium containing 2 mM L-glutamine, 100 μg/mL streptomycin/penicillin, and 10% (v/v) fetal bovine serum (FBS) and maintained in a humidified 5% CO2 incubator at 37 °C.
(§3) Whole cell lysates were prepared in RIPA-buffer (25 mM Tris-HCl, pH 7.6, 150 mM NaCl, 1 mM EGTA, 1% Igepal, 1% sodium deoxycholate, 0.1% SDS, 1 mM PSMF, 1 mM Na3VO4, 1 mM NaF, 1 μg/mL aprotinin, 1 μg/mL leupeptin, and 1 μg/mL pepstatin). […] Immunoblots were analyzed as described previously.[48] […]
(§4) Total RNA extraction, reverse transcription, and quantitative polymerase chain reaction (PCR) were done as detailed in previous articles.[72] […]

Keap1+/+ MEFs = experiment: qRT-PCR of NRF2 target genes in wild-type MEFs; type: cell-based, mouse; conditions: 20 μM, 4, 8 and 24 h
Procedure: (§5) Human embryonic kidney (HEK) 293T cells were grown in Dulbecco’s modified Eagle’s medium (DMEM) supplemented with 10% fetal bovine serum and 80 μg/mL gentamycin. Transient transfections were performed with calcium phosphate using reagents from Sigma. The Keap1^–/– mouse embryo fibroblasts (MEFs) and their corresponding wild-type Keap1^+/+ MEFs were kindly provided by Dr. Ken Itoh (Department of Stress Response Science, Center for Advanced Medical Science, Hirosaki University, Japan). MEFs were grown in DMEM supplemented with 10% fetal bovine serum, 1% penicillin/streptomycin, and 2 mm L-glutamine. SH-SY5Y cells were grown in DMEM and Ham’s F12 supplemented with 10% fetal bovine serum (FBS) and 1% penicillin/streptomycin. The medium was changed to serum-free DMEM without antibiotics 16 h before treatments. DMF (cat. no. 242926, Sigma-Aldrich) was used at 20 μM for 16 h.
(§6) Total RNA extraction, reverse transcription, and quantitative polymerase chain reaction (PCR) were done as detailed in previous articles.[72] Primer sequences are shown in Supporting Information Table S5. Data analysis was based on the ΔΔCT method with normalization of the raw data to housekeeping genes (Applied Biosystems). All PCRs were performed in triplicates.

[3] = Liver microsome stability assay; conditions: human, pooled human liver microsomes, pH 7.4
Procedure: This assay provides information on the metabolic stability of early drug discovery compounds based on liver microsomes. […] The reaction was initiated by adding NADPH (1 mM final concentration). Aliquots of 150 μL were collected at defined time points (0, 5, 15, 30, and 60 min) and added to cold acetonitrile (150 μL) containing an internal standard (5 μg/mL warfarin) to stop the reaction and precipitate the protein. […] Data were log transformed and represented as half-life. All experiments were conducted in duplicates.

[4] = DPPH radical scavenging assay; type: physicochemical
Procedure: The antioxidant activity was determined by the 2,2-diphenyl-1-picrylhydrazyl hydrate (DPPH) assay.[65]−[67] All the measurements were performed in an 80% MeOH solution, with the final reaction volume being 3 mL. A stock of DPPH solution in DMSO (10^–2 M) was prepared and stored at −20 °C, and the same procedure was performed with the antioxidant solution. Then, the DPPH stock solution was diluted to 2 mL with a final concentration of 150 μM (final volume of 3 mL and final concentration of 100 μM). The antioxidant stock was sequentially diluted to 1 mL at 3, 9, 30, 90, and 300 μM (final volume of 3 mL and final concentrations of 1, 3, 10, 30, and 100 μM). The mixture was incubated at room temperature for 30 min. Once this time had passed, the absorbance was measured in a spectrophotometer at 517 nm. Trolox, caffeic acid, and ferulic acid were used as a standard (1, 3, 10, 30, and 100 μM final concentrations). A blank using 80% MeOH solution instead of the corresponding antioxidant was used in each assay. Two independent measurements of each sample were performed. Data were processed using Origin software, and sigmoidal fitting according to the DoseResp function was performed to extrapolate the IC50 (μM) of each antioxidant.

[5] = test system: TDP-43 in lymphoblasts from ALS patients; experiment: TDP-43 phosphorylation and expression in lymphoblasts (immunoblot); type: cell-based, human; conditions: 20 µM, 24 hours
Procedure: Figure S1. Lack of effect of compound 1d against aberrant TDP-43 phosphorylation in sporadic ALS and […]
Representative immunoblot showing the phosphorylation status of TDP-43 in immortalized lymphocytes from control and sporadic ALS individuals. Cells were seeded at an initial density of 1 x 106 x ml-1 in the absence or presence of compound 1d (20 µM). 24 hours after compound addition, cells were harvested and processed for Western blotting analysis. The plot in the left panel (a) represents the quantification of the bands of 43 KD of pTDP-43 normalized by total-TDP-43. The densitometric analyses represent the mean ± SEM of different observations carried […]
43 expression (b) in lymphoblasts from ALS patients.
(1 picture or pasted object on this page, not shown here)

SOD1-ALS lymphoblasts = experiment: NRF2 pathway in SOD1-ALS lymphoblasts; type: cell-based, human; conditions: 20 μM, 24 h
Source text: as §1, §2, §3, §4

KEAP1 = KEAP1 (Homo sapiens, UniProt Q14145); experiment: Differential scanning fluorimetry (DSF) assay; type: binding; conditions: 100 μM; difference from KEAP1 alone (Ti 61.3 °C)
KEAP1, sequence (Q14145 whole entry): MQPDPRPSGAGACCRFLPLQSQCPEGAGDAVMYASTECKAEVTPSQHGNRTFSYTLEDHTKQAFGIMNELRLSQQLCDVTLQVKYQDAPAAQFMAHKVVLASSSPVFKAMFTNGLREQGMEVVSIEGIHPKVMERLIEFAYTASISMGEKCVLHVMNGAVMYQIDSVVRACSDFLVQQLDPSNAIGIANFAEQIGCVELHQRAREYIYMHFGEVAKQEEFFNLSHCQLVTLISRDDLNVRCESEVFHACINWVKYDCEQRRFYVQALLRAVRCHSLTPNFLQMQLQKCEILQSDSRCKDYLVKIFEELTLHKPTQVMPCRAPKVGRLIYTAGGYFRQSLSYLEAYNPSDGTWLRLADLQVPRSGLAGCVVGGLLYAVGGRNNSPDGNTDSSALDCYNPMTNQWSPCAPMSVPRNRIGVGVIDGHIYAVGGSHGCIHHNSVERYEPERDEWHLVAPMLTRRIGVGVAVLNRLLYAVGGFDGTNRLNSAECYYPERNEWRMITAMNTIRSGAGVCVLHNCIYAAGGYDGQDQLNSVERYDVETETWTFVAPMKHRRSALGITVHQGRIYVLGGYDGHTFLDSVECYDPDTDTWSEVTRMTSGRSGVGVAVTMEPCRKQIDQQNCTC

Keap1–/– MEFs = experiment: qRT-PCR of NRF2 target genes in KEAP1-deficient MEFs; type: cell-based, mouse; conditions: 20 μM, 4, 8 and 24 h
Procedure: as §5, §6

NRF2–KEAP1 protein–protein interaction, sequence (Q14145 whole entry): as above
human serum albumin (HSA), sequence (P02768 25-609): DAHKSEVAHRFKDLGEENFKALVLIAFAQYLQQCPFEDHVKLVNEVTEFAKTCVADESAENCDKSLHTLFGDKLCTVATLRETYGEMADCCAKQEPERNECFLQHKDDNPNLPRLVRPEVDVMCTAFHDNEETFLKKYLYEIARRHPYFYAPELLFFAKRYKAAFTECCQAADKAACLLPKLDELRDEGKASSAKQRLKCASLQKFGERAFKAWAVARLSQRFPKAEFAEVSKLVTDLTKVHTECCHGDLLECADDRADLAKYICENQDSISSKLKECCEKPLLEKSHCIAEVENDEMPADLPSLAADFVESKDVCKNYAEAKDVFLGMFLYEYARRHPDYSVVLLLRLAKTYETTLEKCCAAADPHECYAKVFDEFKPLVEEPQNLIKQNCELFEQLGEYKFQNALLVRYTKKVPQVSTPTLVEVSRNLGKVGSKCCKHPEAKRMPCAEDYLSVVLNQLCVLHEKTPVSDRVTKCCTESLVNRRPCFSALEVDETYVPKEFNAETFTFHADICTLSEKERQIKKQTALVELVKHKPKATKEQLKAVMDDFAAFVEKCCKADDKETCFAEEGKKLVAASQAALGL

## O=C(CCc1ccc(O)c(O)c1)N1CCCN(S(=O)(=O)c2cccc3cnccc23)CC1 [Compound 1d, 3-(3,4-Dihydroxyphenyl)-1-(4-(isoquinolin-5-ylsulfonyl)-1,4-diazepan-1-yl)propan-1-one]
[1]; 100 μM, read-out: FP % inhibition (± S.E.M.)
  inhibition at 100 µM: < 10%
[1]; FP and DSF, 100 μM or lower concentrations
  inhibition of the NRF2–KEAP1 interaction: not able to inhibit
[2]
  Stern–Volmer quenching constant KSV: 1.68 × 10^5 L mol^–1
GSK-3β
  activity as an inhibitor of the kinase GSK-3β: negative results
Control lymphoblasts
  NEF2L2 mRNA levels: did not produce changes
  levels of the NRF2 protein: significantly increased
Keap1+/+ MEFs
  mRNA levels of HMOX1 and NQO1: increased the mRNA levels
[3]
  half-life at 1 h, 8 µM: 35.7 min
[4]; 80% MeOH, 30 min, 517 nm, read-out: Radical scavenging activity EC50 (DPPH method)
  EC50: 9.68 µM
[4]; supplementary CSV
  IC50: 10.4 ± 0.7 µM
[5]
  ability to reduce TDP-43 expression: negative results
  ability to reduce aberrant TDP-43 phosphorylation: negative results
SOD1-ALS lymphoblasts
  HMOX1 and NQO1 levels (mRNA and protein): capable of inducing HMOX1 and NQO1 levels in a very significant way
KEAP1
  ΔTi (± S.E.M.): +0.2 (± 0.1) °C
Keap1–/– MEFs
  expression of HMOX1: to a lesser extent than in the wild-type cells
  expression of NQO1: not capable of inducing
